Experimental data published in US20240342119A1, “COMPOSITION FOR TREATING HY[…] AND KELOIDS […] THI[…] AS ACTIVE INGREDIENT” (CEL[…]., priority 2021, published 2024).

Tested on: hypertrophic scars in rabbit ears
Test: rabbit ear hypertrophic scar model
Format: in vivo, New Zealand white rabbits
Details: 10% compound; for epidermal thickness of hypertrophic scar / scar elevation index (SEI) / collagen density (ratio of blue-stained area to total area): 0.5 mL applied daily for 14 days, compared to control and solvent-treated group; for epidermal thickness of hypertrophic scar: H&E, FIG. 9; for scar elevation index (SEI): FIG. 10; for collagen density (ratio of blue-stained area to total area): FIG. 11; for visual evaluation score of hypertrophic scar (dermatoscope, score 0-3 of Table 1): 0.5 mL applied daily, day 14, compared to control and solvent-treated group, FIG. 8
Description: Eight female New Zealand white rabbits (2.6 to 3 kg) were anesthetized, and wounds were formed by removing the epidermis, dermis, and perichondrium of the ear skin of the rabbits using an 8 mm biopsy punch. Three wounds were formed in an ear area of each rabbit. The rabbit's surgical site was sterilized, and the formation of hypertrophic scars was induced through natural healing for 3 weeks.
After 3-week natural healing, the complete epithelialization and hypertrophic scar formation in scar areas were confirmed, and treatment was started for each test group. The test groups were classified into a normal group (normal tissue), a control (untreated scar/hypertrophic scar), test group 1 (solve application), test group 2 (CBM-N1 10%), test group 3 (CBM-N3 10%), test group 4 (CBM-N 10%), and test group 5 (CBM-N 10%).
Each test group was treated by applying 0.5 mL of drug daily for 2 weeks (14 days), and then a tissue autopsy was performed. The biopsied tissue was stored in a 10% formalin solution to form a tissue slide. The effectiveness of hypertrophic scar treatment was confirmed through dermatoscopy and histological evaluation.
The skin tissue areas of the control and test groups were observed using a dermatoscope on the start day and end day (Day 14 of treatment) of treatment, and depending on the degree of hypertrophic scar formation, scores were given for visual evaluation as shown in Table 1 below.
A paraffin block of the fixed ear tissue of a rabbit was prepared, and sliced to a thickness of 3 μm, thereby preparing a tissue slide. Following hydration, staining was performed using hematoxylin and eosin solutions. The stained tissue slides were photographed using a 200× microscope, and epithelial thicknesses were measured using ZEISS ZEN Microscope Software.
The fixed ear tissue of a rabbit was stained with a hematoxylin or eosin solution in the same manner as in the epidermal thickness analysis method, and the stained tissue slide was photographed at 50× magnification. Using ZEISS ZEN Microscope Software, the length from the epidermis to the cartilage was measured for the scar area and normal area, and the scar evaluation index (SEI) was calculated from the results. Here, the SEI is the value calculated by dividing ‘the length from the epidermis to the cartilage at the thickest point in the scar area’ by ‘the length from the epidermis to the cartilage in the normal skin area.’
A paraffin block of the fixed ear tissue of a rabbit was prepared, and sliced to a thickness of 3 μm, thereby preparing a tissue slide. Following hydration, staining was performed using Biebrich Scarlet-Acid Fuchsin solution for 5 minutes, and washing was performed and then staining was performed again with phosphotungstic acid/phosphomolybdic acid for 5 minutes.
Subsequently, staining was performed with aniline blue and an acetic acid solution, and the stained tissue slides were photographed at 400× magnification. In the photographs that were taken, the ratio of the blue-stained area, that is, the area occupied by collagen, to the total area was analyzed using Image J (The National Institutes of Health, USA).

SMILES | epidermal thickness of hypertrophic scar | scar elevation index (SEI) | collagen density (ratio of blue-stained area to total area) | visual evaluation score of hypertrophic scar (dermatoscope, score 0-3 of Table 1)
O=C(C[S+]([O-])C(c1ccccc1)c1ccccc1)NCC1CCCO1 (stereo not shown) [CBM-N5, 2-(benzhydrylsulfinyl)-N-[(tetrahydrofuran-2-yl)methyl]acetamide] | thin epidermal thicknesses | lower SEI values | lower collagen densities | much lower
O=C(CSC(c1ccccc1)c1ccccc1)Nc1ccccc1 [CBM-N3, 2-(benzhydrylthio)-N-phenylacetamide] | thin epidermal thicknesses | lower SEI values | lower collagen densities | much lower
NC(=O)C[S+]([O-])C(c1ccccc1)c1ccccc1 (stereo not shown) [CBM-N1, 2-(benzhydrylsulfinyl)acetamide, reference compound] | thin epidermal thicknesses | lower SEI values | lower collagen densities | much lower
NC(=O)C[S+]([O-])C(c1ccc(F)cc1)c1ccc(F)cc1 (stereo not shown) [CBM-N9, 2-[bis(4-fluorophenyl)methanesulfinyl]acetamide] | thin epidermal thicknesses | lower SEI values | lower collagen densities | much lower
